Reference: patent publication US12344595B2, “2-amino-n-phenyl-nicotinamides as NAV1.8 inhibitors” (Merck Sharp & Dohme LLC, priority 2018, dated 2025)
pIC50: −log10 of the molar value.

Target: human Nav1.8 (Homo sapiens (Human), UniProt Q9Y5Y9)
Experiment: Nav1.8 Qube automated patch-clamp assay
Assay type: cell-based
Details: Nav1.8 Qube Assay; human Nav1.8 channels stably expressed in HEK 293 cells
In short: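 Whole-cell automated patch clamp was run at room temperature on HEK293 cells stably expressing the channel. A 1 Hz, 10 s train of 20 ms pulses to 10 mV from −90 mV (repolarizing to −67 mV) was applied. Peak currents at the 1st and 10th pulses gave resting and inactivated-state IC50 values by Hill fit.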

human Nav1.8, sequence (Q9Y5Y9 whole entry): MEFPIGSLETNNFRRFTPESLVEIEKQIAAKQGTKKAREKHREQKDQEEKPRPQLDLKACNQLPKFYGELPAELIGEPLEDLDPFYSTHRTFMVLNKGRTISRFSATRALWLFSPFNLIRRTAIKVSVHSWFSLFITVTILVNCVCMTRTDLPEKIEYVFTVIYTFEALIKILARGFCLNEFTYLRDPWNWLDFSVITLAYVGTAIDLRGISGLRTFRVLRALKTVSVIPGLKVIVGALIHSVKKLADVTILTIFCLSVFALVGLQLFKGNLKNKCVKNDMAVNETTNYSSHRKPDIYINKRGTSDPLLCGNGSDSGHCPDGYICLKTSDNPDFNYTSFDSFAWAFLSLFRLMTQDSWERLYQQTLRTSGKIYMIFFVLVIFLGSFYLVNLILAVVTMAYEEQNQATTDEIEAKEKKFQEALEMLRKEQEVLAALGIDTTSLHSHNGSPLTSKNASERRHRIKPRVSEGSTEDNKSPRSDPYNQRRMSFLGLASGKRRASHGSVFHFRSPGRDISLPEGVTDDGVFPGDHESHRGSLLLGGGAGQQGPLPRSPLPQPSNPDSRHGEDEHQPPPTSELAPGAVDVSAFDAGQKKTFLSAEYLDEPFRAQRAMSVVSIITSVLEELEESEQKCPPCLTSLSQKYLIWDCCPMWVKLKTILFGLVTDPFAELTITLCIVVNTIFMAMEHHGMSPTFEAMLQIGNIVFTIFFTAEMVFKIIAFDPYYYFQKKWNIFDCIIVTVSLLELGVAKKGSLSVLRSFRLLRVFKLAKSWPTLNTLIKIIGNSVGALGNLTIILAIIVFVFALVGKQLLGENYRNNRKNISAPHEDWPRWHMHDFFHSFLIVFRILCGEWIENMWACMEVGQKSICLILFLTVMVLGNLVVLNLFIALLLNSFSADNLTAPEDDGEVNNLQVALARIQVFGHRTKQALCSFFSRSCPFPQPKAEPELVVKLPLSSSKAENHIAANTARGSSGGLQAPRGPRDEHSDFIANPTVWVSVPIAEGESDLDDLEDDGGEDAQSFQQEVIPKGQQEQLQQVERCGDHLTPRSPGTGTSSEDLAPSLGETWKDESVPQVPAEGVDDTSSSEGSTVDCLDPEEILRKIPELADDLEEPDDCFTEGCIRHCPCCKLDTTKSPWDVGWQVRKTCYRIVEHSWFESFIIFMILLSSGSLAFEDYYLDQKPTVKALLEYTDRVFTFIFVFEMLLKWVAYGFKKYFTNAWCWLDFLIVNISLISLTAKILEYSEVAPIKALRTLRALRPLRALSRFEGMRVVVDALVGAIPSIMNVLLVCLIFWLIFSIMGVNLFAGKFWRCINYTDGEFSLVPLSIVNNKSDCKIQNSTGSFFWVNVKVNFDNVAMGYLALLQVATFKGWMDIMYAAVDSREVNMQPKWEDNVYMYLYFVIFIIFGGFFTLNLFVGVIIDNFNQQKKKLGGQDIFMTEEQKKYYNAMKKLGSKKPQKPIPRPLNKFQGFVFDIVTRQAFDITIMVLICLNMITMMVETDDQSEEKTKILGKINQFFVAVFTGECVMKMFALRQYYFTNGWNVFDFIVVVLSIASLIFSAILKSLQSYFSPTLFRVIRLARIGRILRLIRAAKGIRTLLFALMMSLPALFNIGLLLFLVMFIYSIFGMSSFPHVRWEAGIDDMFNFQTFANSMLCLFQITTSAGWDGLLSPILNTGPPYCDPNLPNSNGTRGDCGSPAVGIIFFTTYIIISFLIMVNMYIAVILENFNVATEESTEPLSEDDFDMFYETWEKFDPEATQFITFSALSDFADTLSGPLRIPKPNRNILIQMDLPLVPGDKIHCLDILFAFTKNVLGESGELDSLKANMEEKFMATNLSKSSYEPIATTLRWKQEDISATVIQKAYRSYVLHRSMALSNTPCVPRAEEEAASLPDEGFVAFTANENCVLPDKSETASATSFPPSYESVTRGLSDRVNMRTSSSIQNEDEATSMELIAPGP

Going from Cc1nc2c(o1)CCN(c1ncc(C(F)(F)F)cc1C(=O)Nc1cccc(S(N)(=O)=O)c1)C2 [Example 73, 2-(2-methyl-6,7-dihydro-4H-oxazolo[4,5-c]pyridin-5-yl)-N-(3-sulfamoyl-phenyl)-5-(trifluoro-methyl)pyridine-3-carboxamide] to NS(=O)(=O)c1cccc(NC(=O)c2cc(C(F)(F)F)cnc2N2CCOCC2)c1 [Example 69, 2-morpholino-N-(3-sulfamoylphenyl)-5-(trifluoromethyl) pyridine-3-carboxamide], the pIC50 rises from 5.08 to 5.39 (0.31 log units).

Going from NC(=O)c1cccc(NC(=O)c2cc(C(F)(F)F)cnc2N2CC3CCC(F)(F)C3C2)c1 (stereo not shown) [Example 108, N-(3-carbamoylphenyl)-2-(4,4-difluoro-1,3,3a,- 5,6,6a-hexahydrocyclo-penta[c]pyrrol-2-yl)-5-(trifluoromethyl)-pyridine-3-carboxamide] to CC1CN(c2ncc(C(F)(F)F)cc2C(=O)Nc2cccc(S(N)(=O)=O)c2)CCC1(F)F (single isomer, unassigned) [Example 124, (S or R)-2-(4,4-difluoro-3-methylpiperidin-1-yl)-N-(3-sulfamoylphenyl)-5-(trifluoromethyl)nicotinamide], the pIC50 rises from 6.83 to 7.82 (0.99 log units).

First: NS(=O)(=O)c1cccc(NC(=O)c2ccc(C(F)(F)F)nc2N2CCCCC2)c1 [Example 77, 2-(1-piperidyl)-N-(3-sulfamoylphenyl)-6-(trifluoromethyl) pyridine-3-carboxamide]
Second: NS(=O)(=O)c1cccc(NC(=O)c2ccc(Cl)nc2N2CCCCCC2)c1 [Example 89, 2-(azepan-1-yl)-6-chloro-N-(3-sulfamoyl-phenyl)pyridine-3-carboxamide]
The pIC50 of the first is 1.26 log units lower: 6.54 for the first, 7.80 for the second. The second is the more potent here.

Going from NS(=O)(=O)c1cccc(NC(=O)c2cc(Cl)cnc2N2CCCCCC2)c1 [Example 31, 2-(azepan-1-yl)-5-chloro-N-(3-sulfamoyl-phenyl)pyridine-3-carboxamide] to NS(=O)(=O)c1cccc(NC(=O)c2cc(F)cnc2N2CCCCC2)c1 [Example 6, 5-fluoro-2-(1-piperidyl)-N-(3-sulfamoyl-phenyl)pyridine-3-carboxamide], the pIC50 falls from 7.66 to 5.08 (2.58 log units). The first is the more potent here.

Going from NS(=O)(=O)c1ccc(O)c(NC(=O)c2cc(C(F)(F)F)cnc2N2CCCCCC2)c1 [Example 25, 2-(azepan-1-yl)-N-(2-hydroxy-5-sulfamoyl-phenyl)-5-(trifluoro-methyl)pyridine-3-carboxamide] to NS(=O)(=O)c1ccc(F)c(NC(=O)c2cc(C(F)(F)F)cnc2N2CCCCC2)c1 [Example 116, N-(2-fluoro-5-sulfamoyl-phenyl)-2-(1-piperidyl)-5-(tri-fluoromethyl)pyridine-3-carboxamide], the pIC50 falls from 6.47 to 5.52 (0.95 log units). The first is the more potent here.

Compared with CC12CCN(c3ncc(C(F)(F)F)cc3C(=O)Nc3cccc(S(N)(=O)=O)c3)CC1C2(F)F (single isomer, unassigned) [Example 129, 2-[(1S,6S or 1R,6R)-7,7-difluoro-6-methyl-3-azabicyclo[4.1.0]heptan-3-yl]-N-(3-sulfamoyl-phenyl)-5-(trifluoro-methyl)pyridine-3-carboxamide], C[C@@H]1CN(c2ncc(C(F)(F)F)cc2C(=O)Nc2cccc(S(N)(=O)=O)c2)C[C@H](C)C1(F)F [Example 125, 2-[(3S,5R)-4,4-difluoro-3,5-dimethyl-1-piperidyl]-N-(3-sulfamoylphenyl)-5-(trifluoromethyl)-pyridine-3-carboxamide] is 1.42 log units higher in pIC50: 7.20 for the first, 8.62 for the second. The second is the more potent here.

First: NC(=O)c1cccc(NC(=O)c2cc(C(F)(F)C(F)(F)F)cnc2N2CCCCCC2)c1 [Example 167, 2-(azepan-1-yl)-N-(3-carbamoylphenyl)-5-(1,1,2,2,2-penta-fluoroethyl)pyridine-3-carboxamide]
Second: NS(=O)(=O)c1cccc(NC(=O)c2cc(C(F)(F)C(F)(F)F)cnc2N2CCCCCC2)c1 [Example 164, 2-(azepan-1-yl)-5-(perfluoroethyl)-N-(3-sulfamoylphenyl)nicotinamide]
The pIC50 of the first is 0.75 log units lower: 7.07 for the first, 7.82 for the second.

Compared with CC1CN(c2ncc(C(F)(F)F)cc2C(=O)Nc2cccc(S(N)(=O)=O)c2)CC(C)O1 (single isomer, unassigned) [Example 150, 2-[(2S,6S or 2R,6R)-2,6-dimethylmorpholin-4-yl]-N-(3-sulfamoylphenyl)-5-(trifluoromethyl) pyridine-3-carboxamide], C[C@@H]1CN(c2ncc(C(F)(F)F)cc2C(=O)Nc2cccc(S(N)(=O)=O)c2)C[C@H](C(F)(F)F)O1 [Example 142, 2-[(2R,6R)-2-methyl-6-(trifluoromethyl)morpholin-4-yl]-N-(3-sulfamoylphenyl)-5-(trifluoromethyl)-pyridine-3-carboxamide] is 0.44 log units lower in pIC50: 6.38 for the first, 5.94 for the second. The first is the more potent here.

First: CS(=O)(=O)c1cccc(NC(=O)c2cc(C(F)(F)F)cnc2N2CCCC(F)(F)C2)c1 [Example 102, 2-(3,3-difluoro-1-piperidyl)-N-(3-methylsulfonylphenyl)-5-(trifluoromethyl)-pyridine-3-carboxamide]
Second: CS(=O)(=O)c1cccc(NC(=O)c2cc(C(F)(F)F)cnc2N2CCC(F)CC2)c1 [Example 100, 2-(4-fluoro-1-piperidyl)-N-(3-methylsulfonylphenyl)-5-(trifluoromethyl)-pyridine-3-carboxamide]
The pIC50 of the first is 0.49 log units lower: 6.15 for the first, 6.64 for the second.

Compared with Cc1cc(Cl)c(C(=O)Nc2cccc(S(N)(=O)=O)c2)c(N2CCCCCC2)n1 [Example 158, 2-(azepan-1-yl)-4-chloro-6-methyl-N-(3-sulfamoylphenyl)-pyridine-3-carboxamide], Cc1nc(N2CCCCCC2)c(C(=O)Nc2cccc(S(N)(=O)=O)c2)c(C)c1Cl [Example 2, 2-(azepan-1-yl)-5-chloro-4,6-dimethyl-N-(3-sulfamoylphenyl)nicotinamide] is 3.11 log units higher in pIC50: 6.04 for the first, 9.15 for the second.

Going from NS(=O)(=O)c1cccc(NC(=O)c2cc(C(F)(F)F)cnc2N2CC3CCC3(C(F)(F)F)C2)c1 (single isomer, unassigned) [Example 130, N-(3-sulfamoylphenyl)-5-(trifluoromethyl)-2-[(1R,5R or 1S,5S)-1-(trifluoromethyl)-3-azabicyclo[3.2.0]heptan-3-yl]pyridine-3-carboxamide] to NS(=O)(=O)c1cccc(NC(=O)c2cc(C(F)(F)F)cnc2N2CC3CC2CC3(F)F)c1 (single isomer, unassigned) [Example 137, 2-[(1S,4S or 1R,4R)-5,5-difluoro-2-azabicyclo-[2.2.1]heptan-2-yl]-N-(3-sulfamoylphenyl)-5-(trifluoromethyl)-pyridine-3-carboxamide], the pIC50 falls from 7.80 to 7.09 (0.71 log units). The first is the more potent here.

Compared with Cc1nc(N2CCCC(F)(F)CC2)c(C(=O)N(C)c2cccc(S(N)(=O)=O)c2)c(C)c1Cl [Example 179, 5-chloro-2-(4,4-difluoroazepan-1-yl)-N,4,6-trimethyl-N-(3-sulfamoylphenyl)nicotinamide], Cc1ccc(C(=O)Nc2cccc(S(C)(=O)=O)c2)c(N2CCCC(F)(F)CC2)n1 [Example 10, 2-(4,4-difluoroazepan-1-yl)-6-methyl-N-(3-methylsulfonylphenyl) pyridine-3-carboxamide] is 1.98 log units higher in pIC50: 6.06 for the first, 8.04 for the second.

First: Cc1nc(N2CCCCCC2)c(C(=O)Nc2cccc(S(N)(=O)=O)c2)cc1C(F)(F)F [Example 168, 2-(azepan-1-yl)-6-methyl-N-(3-sulfamoylphenyl)-5-(trifluoromethyl)nicotinamide]
Second: CC1(O)CCCN(c2ncc(C(F)(F)F)cc2C(=O)Nc2cccc(S(N)(=O)=O)c2)CC1 (stereo not shown) [Example 53, 2-(4-hydroxy-4-methyl-azepan-1-yl)-N-(3-sulfamoylphenyl)-5-(trifluoromethyl)-pyridine-3-carboxamide]
The pIC50 of the first is 1.97 log units higher: 8.49 for the first, 6.52 for the second.

Compared with CS(=O)(=O)c1cccc(NC(=O)c2cc(C(F)(F)F)cnc2N2Cc3ccccc3C2)c1 [Example 103, 2-isoindolin-2-yl-N-(3-methylsulfonylphenyl)-5-(trifluoromethyl)-pyridine-3-carboxamide], CN1C2CCC1CN(c1ncc(C(F)(F)F)cc1C(=O)Nc1cccc(S(N)(=O)=O)c1)C2 (racemic) [Example 71, 2-[rac-(1S,5R and 1R,5S)-8-methyl-3,8-diazabicyclo[3.2.1]-octan-3-yl]-N-(3-sulfamoylphenyl)-5-(trifluoromethyl) pyridine-3-carboxamide] is 0.37 log units lower in pIC50: 5.63 for the first, 5.26 for the second.

First: CC(C)CC1CCCCCN1c1ncc(C(F)(F)F)cc1C(=O)Nc1cccc(S(N)(=O)=O)c1 (stereo not shown) [Example 68, 2-(2-isobutylazepan-1-yl)-N-(3-sulfamoyl-phenyl)-5-(trifluoro-methyl)pyridine-3-carboxamide]
Second: O=C(Nc1cccc(S(=O)(=O)Nc2ccncn2)c1)c1cc(C(F)(F)F)cnc1N1CCCCCC1 [Example 151, 2-(azepan-1-yl)-3-((3-(N-(pyrimidin-4-yl)sulfamoyl)phenyl)carbamoyl)-5-(trifluoromethyl)pyridin-1-ium]
The pIC50 of the first is 0.72 log units lower: 5.44 for the first, 6.16 for the second.

Going from NC(=O)c1cccc(NC(=O)c2cc(Cl)cnc2N2CCCC(F)(F)CC2)c1 [Example 15, N-(3-carbamoyl-phenyl)-5-chloro-2-(4,4-difluoroazepan-1-yl)pyridine-3-carboxamide] to C[Si](C)(C)c1cnc(N2CCC3(CC2)COC3)c(C(=O)Nc2cccc(S(N)(=O)=O)c2)c1 [Example 87, 2-(2-oxa-7-azaspiro-[3.5]nonan-7-yl)-N-(3-sulfamoylphenyl)-5-(trimethylsilyl)-nicotinamide], the pIC50 falls from 7.72 to 5.10 (2.62 log units). The first is the more potent here.

Going from C[C@@H]1CN(c2ncc(C(F)(F)F)cc2C(=O)Nc2ccc3c(c2)S(=O)(=O)NC3)C[C@H](C)C1(F)F [Example 111, 2-[(3S,5R)-4,4-difluoro-3,5-dimethyl-1-piperidyl]-N-(1,1-dioxo-2,3-dihydro-1,2-benzothiazol-6-yl)-5-(trifluoromethyl) pyridine-3-carboxamide] to CC(C)(C)c1ccc(C(=O)Nc2cccc(S(C)(=O)=O)c2)c(N2CCCCC2)n1 [Example 41, 6-tert-butyl-N-(3-methylsulfonylphenyl)-2-(1-piperidyl)pyridine-3-carboxamide], the pIC50 falls from 7.20 to 5.33 (1.87 log units). The first is the more potent here.
